These results are taken from US8168628B2, “Conjugated psychotropic drugs and uses thereof” (Ramot at Tel-Aviv University Ltd., priority 2001, dated 2012).

The IC50 is the concentration at which inhibition is half-maximal. A high value points to lower potency.

Structures can show the parent of a compound that is named as a salt.

The subject of one data set is rat myocytes. The method, then:
Toxicity: In vitro toxicity was determined by measuring the effect of the tested compounds (either known neuroleptics or the chemical conjugates of the invention) on primary cultures of neurons and whole brain neuron and glia cells obtained from the brains of neonatal mice. In vitro toxicity of perphenazine and its chemical conjugate AN 168 was also determined with rat myocytes. Acute toxicity in vivo as determined by the LD50 was evaluated on 2 months old ICR mice following the administration of a single intraperitoneal bolus-dose of drug.

For another data set, the system named is B16. The data set is described as follows: Proliferation test, B16 melanoma cells. In kind it is cell-based, murine. The method, then: (§1) Cell lines: Human prostate carcinoma (PC-3), human colon carcinoma (HT-29), murine melanoma (B-16) and its drug resistant subclone (B-16 MDR), mouse fibroblasts (3T3), myeloid leukemia (HL 60) and its drug resistant subclone (HL 60 MX2), endometrium cell line (MES SA) and its drug resistant subclone (MES DX5), jurkat T lymphoma and monocyte leukemia (U-937), were used in this study.
(§2) Proliferation of cancer and normal cells: Proliferation was measured by neutral red assay or by a fluorometric assay quantitating DNA content. In the neutral red assay, the neutral red is absorbed by lysosomes, thus causing coloring of living cells. Quantitative analysis is performed by colorimetric assay (ELISA reader at 550 nm). In the fluorometric assay, alamar blue is used as a redox indicator. Alamar blue fluorescence was measured at an excitation wavelength of 544 nm and an emission wavelength of […] (FLUOstar BMG Lab Technologies, Offenburg, Germany).
(§3) The cells were sub-cultured and the tested compounds were added thereto in increasing concentrations. The IC50 values were determined by linear regression of the survival percentage of the cells.

A further data set has as its system MES SA DX5 (MDR). The data set is described as follows: Proliferation test, MES SA DX5 (MDR) cells. In kind it is cell-based. Conditions: Homo sapiens, linear regression of survival percentage. The method, then: as §1, §2, §3
In a further data set the test system is 3T3. The data set is described as follows: Proliferation test, 3T3 fibroblasts. In kind it is cell-based. To be noted: Mus musculus, NIH3T3; linear regression of survival percentage. The method, then:
as §1, §2, §3

A short description of data set [1]: Stability upon prolonged storage (NMR). In kind it is physicochemical. To be noted: about 3 months storage; NMR spectroscopy.
The subject of another data set is rats. The data set is described as follows: Catalepsy in rats, “piano” test, oral administration. In kind it is in vivo, rat. The method, then:
To this end, the induced catalepsy, the prolactin blood levels and the animal behavior were measured as described hereinabove, following oral administration of either AN 168 or perphenazine alone to rats. Animals, divided 5 per cage, were treated by oral administration of perphenazine or AN-168 dissolved in 1% lactic acid. Control animals received vehicle (lactic acid) only.
The catalepsy induced by oral administration of various concentrations of AN 168 and perphenazine was measured by the “wall” test and the “piano” test described hereinabove. The time course of catalepsy was measured 4-24 hours following oral administration of 2.5, 5, 10 and 20 mg/kg perphenazine and respective equimolar doses of 3.5, 7, 14 and 28 mg/kg AN-168. The total catalepsy represents the sum of average catalepsy per treated group during the 4-24 hours of follow-up.

The next data set has as its system C6 rat glioma cells. Briefly: Chemosensitization in C6 rat glioma cells. In kind it is cell-based. The protocol:
Chemosensitization: The chemosensitizing effect of perphenazine and its chemical conjugate AN 168 was measured in vitro. Various concentrations of perphenazine or AN 168 were co-administered together with a chemotherapeutic agent to either C6 rat glioma cells or to Jurkat T lymphoma cells. Cells viability and/or DNA fragmentation following treatment with either the chemotherapeutic agent, perphenazine, AN 168, a combination of the chemotherapeutic agent and perphenazine or a combination of a chemotherapeutic agent with AN 168 were measured as described hereinabove.

Turning to `NCCCC(=O)OCCN1CCN(CCCN2c3ccccc3Sc3ccc(Cl)cc32)CC1` [AN-168, Perphenazine 4-aminobutyrate Trihydrochloride], the “decrease in cells viability” value with rat myocytes is “did not cause any decrease in cells viability at all concentrations”. Further, the IC50 with B16 (Mus musculus, B16, linear regression of survival percentage) was 26.8 ± 1.8 µM; in the data set on MES SA DX5 (MDR) it was 17.2 µM; in the data set on 3T3, 25 µM. Also, the “effect on the proliferation of B16 murine melanoma cells” value in the data set on B16 (representative experiment (FIG. 13)) is listed as “relatively active as anti-proliferative drugs”. The “stability upon prolonged storage” value in data set [1] is “slow decomposition, probably due to hydrolysis, occurred”. Besides, the “time course of catalepsy” value in the data set on rats (oral, 3.5-28 mg/kg AN 168 vs equimolar perphenazine, 4-6 hours (FIG. 8a)) was “consistent reduction in the cataleptic behavior at all concentrations”. In addition, the total catalepsy entry with rats (oral, 5, 10, 20 mg/kg perphenazine, 7, 14, 28 mg/kg AN-168, 4-6 hours (FIGS. 9a, 9b)) was “consistently lower than that induced by perphenazine”. In addition, the “time course of catalepsy, experiments conducted 3 months later” value in the data set on rats (oral, 14 and 28 mg/kg AN 168, 4-6 hours (FIG. 8b)) was “higher catalepsy was induces as compared with the proceeding experiments”. In addition, the “chemosensitizing effect, co-administration with Vincistine” value in the data set with C6 rat glioma cells (24 hours, Vincistine 30 μM, conjugate even at 5 μM (FIG. 16)) is on record as “substantially enhance the cytotoxic effect thereof”. Besides, the “cells viability, combined treatment of Cisplatin and AN 168” value in the data set with C6 rat glioma cells (Cisplatin 5-50 μM plus 10 and 15 μM AN 168, neutral red (FIG. 17)) is “rendered the cells susceptible to the chemotherapeutic drug”.
